Assay results: the CheMixHub viscosity set
“And” between values parts separate entries of the source, which are not always exact repeats. Equal values may be shown once.

Test: xn = mol fraction of the nth substance listed

C=C(C)C(=O)OC + CO
viscosity [mPa·s], 101 kPa
Conditions | x2 = 0.1152 | x2 = 0.2092 | x2 = 0.3024 | x2 = 0.4008 | x2 = 0.5011 | x2 = 0.6041 | x2 = 0.7013 | x2 = 0.8003 | x2 = 0.9033
293.15 K | 0.5752 | 0.5665 | 0.5622 | 0.5592 | 0.5546 | 0.5576 | 0.5612 | 0.5709 | 0.5792
298.15 K | 0.5416 | 0.5329 | 0.5294 | 0.5266 | 0.5222 | 0.5232 | 0.5269 | 0.5357 | 0.5425
303.15 K | 0.5126 | 0.5046 | 0.5012 | 0.4973 | 0.4928 | 0.4944 | 0.4965 | 0.5036 | 0.5088
308.15 K | 0.4841 | 0.4783 | 0.4739 | 0.4705 | 0.4665 | 0.4673 | 0.4689 | 0.4748 | 0.4792
313.15 K | 0.4611 | 0.4552 | 0.4511 | 0.4474 | 0.4428 | 0.4435 | 0.4441 | 0.4493 | 0.4529
318.15 K | 0.4391 | 0.4335 | 0.4297 | 0.4261 | 0.4212 | 0.4228 | 0.4243 | 0.4259 | 0.4285
323.15 K | 0.4195 | 0.4138 | 0.4101 | 0.4063 | 0.4022 | 0.4031 | 0.4043 | 0.4057 | 0.4065

Cc1cccc(C)c1O + C[N+](C)(C)CCO.[Cl-]
298.15 K, 101.33 kPa
Conditions | viscosity
x1 = 0.7 | 151.2 mPa·s
x1 = 0.8 | 86.79 mPa·s and 61.87 mPa·s and 54.12 mPa·s
x1 = 0.9 | 50.22 mPa·s

CCCCOP(=O)(O)OCCCC + CC(C)N
297 K, 101 kPa
Conditions | viscosity [mPa·s]
x2 = 0.15 | 80
x2 = 0.3 | 240
x2 = 0.48 | 4070
x2 = 0.5 | 4750
x2 = 0.66 | 260
x2 = 0.85 | 100

[I-].[Na+] + O
310.15 K, 101 kPa
Conditions | viscosity [mPa·s]
x1 = 0.000186 | 0.7003
x1 = 0.000929 | 0.6978
x1 = 0.001834 | 0.6993
x1 = 0.002695 | 0.7053
x1 = 0.003679 | 0.7179
x1 = 0.005197 | 0.749
x1 = 0.005988 | 0.7709

Cc1ccc(NC(=O)NC(C)CCCC(C)C)cc1NC(=O)NC(C)CCCC(C)C (stereo unspecified) + CCCCC
Conditions | viscosity [mPa·s]
293.15 K, 100 kPa, x1 = 0.0002 | 461

C=C(C)C(=O)OC + ClC(Cl)Cl
303.15 K, 101 kPa
Conditions | viscosity [mPa·s]
x1 = 0.0522 | 0.5364
x1 = 0.1301 | 0.5505
x1 = 0.3102 | 0.5767
x1 = 0.4132 | 0.5808
x1 = 0.5161 | 0.5747
x1 = 0.7435 | 0.5589
x1 = 0.8591 | 0.542

C=C(C)C(=O)OC + Cc1ccccc1
303.15 K, 101 kPa
Conditions | viscosity [mPa·s]
x1 = 0.1041 | 0.5201
x1 = 0.2049 | 0.5187
x1 = 0.4069 | 0.5163
x1 = 0.5046 | 0.5155
x1 = 0.6068 | 0.5148
x1 = 0.798 | 0.5141
x1 = 0.896 | 0.5141

[I-].[Na+] + OCCO
101 kPa, x1 = 0.2
Conditions | viscosity [mPa·s]
303 K | 47.72
313 K | 29.93
323 K | 20.08

CCCCCCCCCCCC(=O)[O-].[Na+] + CCCCCCCC(=O)O
100 kPa, x1 = 0.2
Conditions | viscosity [mPa·s]
293.15 K | 60.29
298.15 K | 47.97
303.15 K | 38.68
308.15 K | 31.58
313.15 K | 26.09
318.15 K | 21.79
323.15 K | 18.38

C=C(C)C(=O)OC + CCCCOCCCC
viscosity [mPa·s], 101.3 kPa
Conditions | 298.15 K | 308.15 K
x1 = 0.0446 | 0.633 | 0.581
x1 = 0.1479 | 0.616 | 0.561
x1 = 0.2442 | 0.603 | 0.546
x1 = 0.3388 | 0.593 | 0.532
x1 = 0.4495 | 0.584 | 0.519
x1 = 0.4924 | 0.581 | 0.515
x1 = 0.5489 | 0.579 | 0.51
x1 = 0.6504 | 0.576 | 0.502
x1 = 0.7489 | 0.575 | 0.496
x1 = 0.8501 | 0.577 | 0.492
x1 = 0.9428 | 0.581 | 0.49

CC(N)(CO)CO + O
viscosity [mPa·s], 101.3 kPa
Conditions | 303.15 K | 313.15 K | 323.15 K
x1 = 0.019 | 1.127 | 0.9018 | 0.7417
x1 = 0.041 | 1.683 | 1.307 | 1.045
x1 = 0.068 | 2.681 | 1.999 | 1.567

C=C(C)C(=O)OC + CC(C)CO
viscosity [mPa·s], 101.3 kPa
Conditions | 298.15 K | 308.15 K
x1 = 0.0547 | 2.74 | 2.077
x1 = 0.1398 | 2.067 | 1.621
x1 = 0.2311 | 1.576 | 1.274
x1 = 0.33 | 1.22 | 1.012
x1 = 0.4577 | 0.927 | 0.788
x1 = 0.5037 | 0.852 | 0.73
x1 = 0.5427 | 0.799 | 0.687
x1 = 0.6552 | 0.686 | 0.595
x1 = 0.7288 | 0.638 | 0.553
x1 = 0.8409 | 0.594 | 0.512
x1 = 0.9341 | 0.581 | 0.495

C[N+](C)(C)CCC[N+]1(C)CCCCC1.N#C[N-]C#N.N#C[N-]C#N + CO
viscosity [mPa·s], 100 kPa
Conditions | 303.15 K | 313.15 K | 323.15 K
x1 = 0.0999 | – | – | 2.735
x1 = 0.7998 | 918.9 | 488.5 | –

C=C(C)C(=O)OC + CC(C)(C)O
viscosity [mPa·s], 101.3 kPa
Conditions | 298.15 K | 308.15 K
x1 = 0.0571 | 3.463 | 2.088
x1 = 0.1587 | 2.316 | 1.51
x1 = 0.256 | 1.652 | 1.15
x1 = 0.3589 | 1.217 | 0.898
x1 = 0.4561 | 0.956 | 0.738
x1 = 0.4983 | 0.873 | 0.686
x1 = 0.5567 | 0.782 | 0.627
x1 = 0.6571 | 0.672 | 0.555
x1 = 0.7563 | 0.608 | 0.511
x1 = 0.841 | 0.58 | 0.491
x1 = 0.9335 | 0.573 | 0.486

C=C(C)C(=O)OC + CCCCO
viscosity [mPa·s], 101.3 kPa
Conditions | 298.15 K | 308.15 K
x1 = 0.05 | 2.22 | 1.726
x1 = 0.1489 | 1.7 | 1.355
x1 = 0.2479 | 1.341 | 1.092
x1 = 0.3487 | 1.086 | 0.9
x1 = 0.4499 | 0.906 | 0.761
x1 = 0.5024 | 0.835 | 0.705
x1 = 0.5479 | 0.783 | 0.664
x1 = 0.6441 | 0.699 | 0.596
x1 = 0.7437 | 0.639 | 0.546
x1 = 0.8469 | 0.602 | 0.513
x1 = 0.9453 | 0.585 | 0.496

O=C(c1ccccc1)N(O)c1ccccc1 + CS(C)=O
101 kPa
Conditions | viscosity [mPa·s]
308.15 K, x1 = 0.1408 | 2.065
318.15 K, x1 = 0.4694 | 1.565
